Experimental data reported in US20260276634A1, “METHOD FOR DETERMINING INTESTINAL PERMEABILITY” (BIOMEDAL, SL, priority 2023, published 2026).

Conditions: human, in vivo
Method: Specifically, subjects (n=15) received 8 g of gluten after at least 8 hours of fasting, following a gluten-free diet for at least 36 hours in individuals without diagnosed celiac disease. The gluten consisted of gluten powder with flavorings (sweeteners and food colorings) contained in single-use heat-sealed sachets. At the same time, volunteers took 1 g of mannitol and 10 g of lactulose. Subsequently, the various urines were collected in separate containers, to be able to perform individualized measurements of the concentration in each void, as well as the total volume of the urines. The amount of gluten peptides present in urine excreted for 15 hours following gluten intake was determined using the iVYCHECK urine product and a calibrated lateral flow strip reader iVYCHECK Reader (Biomedal, Spain). […]
In this example conducted with 15 volunteers without symptoms of diagnosed digestive disease, basal urine is analyzed. […] The concentrations of GIP in the excreted urines were measured, both by ELISA and LFIA between 0-6 h after intake and between 2-15 h after intake individually. The GIP concentration of each urine of each volunteer (FIG. 4) and lactulose (FIG. 5) were measured, and subsequently, the % excreted relative to the ingested GIP and the lactulose/mannitol ratio (FIG. 6) were calculated. The correlation between lactulose: mannitol and GIP was determined. […]

| Molecule | share of detectable gluten excreted in the first 9 to 15 hours [%] | time over which lactulose excretion occurs [h] |
| --- | --- | --- |
| gluten | > 80 |  |
| OC[C@H]1O[C@@H](O[C@@H]2[C@@H](CO)OC(O)(CO)[C@H]2O)[C@H](O)[C@@H](O)[C@H]1O (mixture of isomers) [lactulose] |  | > 15 |
